Measurements from patent publication US10214527B2, “Triazolopyridine inhibitors of myeloperoxidase” (priority 2015, dated 2019).

Molecular target: myeloperoxidase (MPO) (Homo sapiens (Human), UniProt P05164)
Experiment: MPO peroxidation assay (Amplex Red assay)
Format: biochemical
Settings: not given

Sequence of myeloperoxidase (MPO) (P05164 49-745): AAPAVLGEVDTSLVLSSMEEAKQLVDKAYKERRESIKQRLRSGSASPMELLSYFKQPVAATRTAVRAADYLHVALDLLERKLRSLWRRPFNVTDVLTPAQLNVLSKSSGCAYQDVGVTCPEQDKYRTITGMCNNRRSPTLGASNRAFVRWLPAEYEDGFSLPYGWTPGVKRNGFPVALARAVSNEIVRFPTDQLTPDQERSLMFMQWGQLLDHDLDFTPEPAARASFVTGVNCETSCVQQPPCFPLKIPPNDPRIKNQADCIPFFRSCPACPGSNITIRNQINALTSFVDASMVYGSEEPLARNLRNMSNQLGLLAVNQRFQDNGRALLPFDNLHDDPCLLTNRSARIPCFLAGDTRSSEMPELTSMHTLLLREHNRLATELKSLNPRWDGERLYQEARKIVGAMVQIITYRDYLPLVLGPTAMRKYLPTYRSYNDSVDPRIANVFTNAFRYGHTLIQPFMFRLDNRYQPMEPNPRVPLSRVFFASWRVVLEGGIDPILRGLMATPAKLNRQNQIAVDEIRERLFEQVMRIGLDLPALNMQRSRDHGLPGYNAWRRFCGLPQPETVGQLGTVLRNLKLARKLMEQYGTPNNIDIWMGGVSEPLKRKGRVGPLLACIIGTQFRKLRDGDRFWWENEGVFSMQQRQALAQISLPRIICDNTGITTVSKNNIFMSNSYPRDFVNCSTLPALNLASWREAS

First: Nc1cc(Cc2cccc(Cl)c2)c2nn[nH]c2n1 [Example 2, 7-(3-chlorobenzyl)-3H-[1,2,3]triazolo [4,5-b]pyridin-5-amine]
Second: Nc1cc(Cc2cccc(C(F)(F)F)c2)c2nn[nH]c2n1 [Example 26, 7-(3-(trifluorometh-yl)benzyl)-3H-[1,2,3]triazolo [4,5-b]pyridin-5-amine]
The IC50 of the first is lower: 1 to 100 nM for the first, 1000 to 10000 nM for the second.

First: Nc1cc(Cc2ccc3ccccc3c2)c2nn[nH]c2n1 [Example 6, 7-(naphthalen-2-ylmethyl)-3H-[1,2,3] triazolo[4,5-b]pyridin-5-amine]
Second: Nc1cc(Cc2cccc(-c3ccccc3)c2)c2nn[nH]c2n1 [Example 17, 7-(Biphenyl-3-ylmethyl)-3H-[1,2,3]triazolo[4,5-b]pyridin-5-amine]
The IC50 of the first is higher: 101 to 999 nM for the first, 1 to 100 nM for the second.

`COC(=O)c1cccc(Cc2cc(N)nc3[nH]nnc23)c1` [Example 7, Methyl 3-((5-amino-3H-[1,2,3]triazolo[4,5-b]pyridin-7-yl)methyl)benzoate] and `Nc1cc(Cc2ccccc2F)c2nn[nH]c2n1` [Example 23, 7-(2-fluorobenzyl)-3H-[1,2,3]triazolo [4,5-b]pyridin-5-amine] fall in the same range of IC50: 1 to 100 nM for the first, 1 to 100 nM for the second.

Same assay, conditions: MPO peroxidation, potency range class; read-out: Amplex Red Assay IC50 value

`Cc1ccc(Cc2cc(N)nc3[nH]nnc23)cc1` [Example 3, 7-(4-methylbenzyl)-3H-[1,2,3]triazolo [4,5-b]pyridin-5-amine] and `COc1ccc(Cc2cc(N)nc3[nH]nnc23)cc1` [Example 4, 7-(4-methoxybenzyl)-3H-[1,2,3] triazolo[4,5-b]pyridin-5-amine] fall in the same range of IC50: 101 to 999 nM for the first, 101 to 999 nM for the second.

`N#Cc1ccc(F)c(Cc2cc(N)nc3[nH]nnc23)c1` [Example 8, 3-((5-amino-3H-[1,2,3]triazolo [4,5-b]pyridin-7-yl)methyl)-4-fluorobenzo-nitrile] and `Nc1cc(Cc2cc(F)ccc2F)c2nn[nH]c2n1` [Example 42, 7-(2,5-difluorobenzyl)-3H-[1,2,3] triazolo[4,5-b]pyridin-5-amine] fall in the same range of IC50: 1 to 100 nM for the first, 1 to 100 nM for the second.

`Cc1cccc(Cc2cc(N)nc3[nH]nnc23)c1F` [Example 9, 7-(2-fluoro-3-methylbenzyl)-3H-[1,2,3]triazolo [4,5-b]pyridin-5-amine] and `Nc1cc(Cc2cccc(Cl)c2F)c2nn[nH]c2n1` [Example 45, 7-(3-chloro-2-fluorobenzyl)-3H-[1,2,3] triazolo[4,5-b]pyridin-5-amine] fall in the same range of IC50: 1 to 100 nM for the first, 1 to 100 nM for the second.

First: COC(=O)c1ccc(Cc2cc(N)nc3[nH]nnc23)c(OC)c1 [Example 10, methyl 4-((5-amino-3H-[1,2,3]triazolo[4,5-b]pyridin-7-yl)methyl)-3-methoxybenzo-ate]
Second: Nc1cc(Cc2cccc(F)c2)c2nn[nH]c2n1 [Example 24, 7-(3-fluorobenzyl)-3H-[1,2,3]triazolo [4,5-b]pyridin-5-amine]
The IC50 of the first is higher: 101 to 999 nM for the first, 1 to 100 nM for the second.

`CC(C)(C)OC(=O)N1CCCc2cc(Cc3cc(N)nc4[nH]nnc34)ccc21` [Example 12, tert-butyl 6-((5-amino-3H-[1,2,3]triazolo[4,5-b]pyridin-7-yl)methyl)-3,4-dihydroquinoline-1(2H)-carboxylate] and `Nc1cc(Cc2ccc3c(c2)CCC3)c2nn[nH]c2n1` [Example 22, 7-((2,3-dihydro-1H-inden-5-yl)methyl)-3H-[1,2,3]triazolo [4,5-b]pyridin-5-amine] fall in the same range of IC50: 101 to 999 nM for the first, 101 to 999 nM for the second.

`Cc1ccc(-c2cccc(Cc3cc(N)nc4[nH]nnc34)c2)cc1` [Example 15, 7-((4′-methyl-[1,1′-biphenyl]-3-yl)methyl)-3H-[1,2,3]triazolo [4,5-b] pyridin-5-amine] and `Nc1cc(Cc2cccc(Oc3ccc(F)cc3)c2)c2nn[nH]c2n1` [Example 27, 7-(3-(4-fluorophenoxy)benzyl)-3H-[1,2,3]triazolo [4,5-b]pyridin-5-amine] fall in the same range of IC50: 101 to 999 nM for the first, 101 to 999 nM for the second.

`Nc1cc(Cc2c(F)ccc(Cl)c2F)c2nn[nH]c2n1` [Example 18, 7-(3-chloro-2,6-difluorobenzyl)-3H-[1,2,3]triazolo [4,5-b]pyridin-5-amine] and `Nc1cc(Cc2c(F)cccc2F)c2nn[nH]c2n1` [Example 33, 7-(2,6-difluorobenzyl)-3H-[1,2,3] triazolo[4,5-b]pyridin-5-amine] fall in the same range of IC50: 1 to 100 nM for the first, 1 to 100 nM for the second.

First: Nc1cc(Cc2ccc3cc(F)ccc3c2)c2nn[nH]c2n1 [Example 19, 7-((6-fluoronaphthalen-2-yl)methyl)-3H-[1,2,3]triazolo [4,5-b]pyridin-5-amine]
Second: Nc1cc(Cc2ccc(OC(F)(F)F)cc2)c2nn[nH]c2n1 [Example 36, 7-(4-(trifluorometh-oxy)benzyl)-3H-[1,2,3]triazolo [4,5-b]pyridin-5-amine]
The IC50 of the first is lower: 101 to 999 nM for the first, 1000 to 10000 nM for the second.

`Nc1cc(Cc2ccc3c(c2)OCO3)c2nn[nH]c2n1` [Example 20, 7-(benzo[d][1,3]dioxol-5-ylmethyl)-3H-[1,2,3]triazolo [4,5-b]pyridin-5-amine] and `CC(C)(C)c1ccc(Cc2cc(N)nc3[nH]nnc23)cc1` [Example 35] fall in the same range of IC50: 101 to 999 nM for the first, 101 to 999 nM for the second.

`Cc1nc(-c2ccc(Cc3cc(N)nc4[nH]nnc34)cc2)no1` [Example 32, 7-(4-(5-methyl-1,2,4-oxadiazol-3-yl)benzyl)-3H-[1,2,3]triazolo [4,5-b] pyridin-5-amine] and `Nc1cc(Cc2ccc(-c3csnn3)cc2)c2nn[nH]c2n1` [Example 41, 7-(4-(1,2,3-thiadiazol-4-yl)benzyl)-3H-[1,2,3]triazolo [4,5-b]pyridin-5-amine] fall in the same range of IC50: 101 to 999 nM for the first, 101 to 999 nM for the second.

Compared with `Nc1cc(Cc2ccccc2CS(=O)(=O)c2ccccc2)c2nn[nH]c2n1` [Example 38, 7-(2-((phenylsulfon-yl)methyl)benzyl)-3H-[1,2,3]triazolo [4,5-b]pyridin-5-amine], `Nc1cc(Cc2cccc3c2ccn3Cc2ccccc2)c2nn[nH]c2n1` [Example 59, 7-((1-Benzyl-1H-indol-4-yl)methyl)-3H-[1,2,3]triazolo[4,5-b]pyridin-5-amine] is lower in IC50: 101 to 999 nM for the first, 1 to 100 nM for the second. The second is the more potent here.

`Nc1cc(Cc2ccc(C(=O)c3ccccc3)cc2)c2nn[nH]c2n1` [Example 39, (4-((5-amino-3H-[1,2,3]triazolo [4,5-b]pyridin-7-yl)methyl)phenyl)(phenyl) methanone] and `Nc1cc(Cc2cccc(C(=O)NCc3ccccc3)c2)c2nn[nH]c2n1` [Example 46, 3-((5-Amino-3H-[1,2,3]triazolo[4,5-b]pyridin-7-yl)methyl)-N-benzylbenzamide] fall in the same range of IC50: 101 to 999 nM for the first, 101 to 999 nM for the second.

`Nc1cc(Cc2cccc(OCc3ccccc3)c2)c2nn[nH]c2n1` [Example 49, 7-(3-(Benzyloxy)benzyl)-3H-[1,2,3]triazolo[4,5-b]pyridin-5-amine] and `Nc1cc(Cc2cccc(-n3cccn3)c2)c2nn[nH]c2n1` [Example 52, 7-(3-(1H-pyrazol-1-yl)benzyl)-3H-[1,2,3]triazolo [4,5-b]pyridin-5-amine] fall in the same range of IC50: 101 to 999 nM for the first, 101 to 999 nM for the second.

`Cc1cc(C)n(-c2cccc(Cc3cc(N)nc4[nH]nnc34)c2)n1` [Example 53, 7-(3-(3,5-dimethyl-1H-pyrazol-1-yl)benzyl)-3H-[1,2,3]triazolo [4,5-b] pyridin-5-amine] and `Cc1cccc(Cc2cc(N)nc3[nH]nnc23)n1` [Example 54, 7-((6-methylpyridin-2-yl)methyl)-3H-[1,2,3]triazolo [4,5-b]pyridin-5-amine] fall in the same range of IC50: 101 to 999 nM for the first, 101 to 999 nM for the second.

For `COc1ccc(-c2cccc(Cc3cc(N)nc4[nH]nnc34)n2)cc1` [Example 55, 7-((6-(4-methoxyphenyl)pyridin-2-yl)methyl)-3H-[1,2,3]triazolo [4,5-b] pyridin-5-amine], the IC50 was 101 to 999 nM.
